Reference: patent US20110224226A1, “COMPOSITIONS AND METHODS FOR INCREASING BLOOD PLATELET LEVELS IN HUMANS” (AKARX, Inc., priority 2006, published 2011)
Read-outs that look alike come from different tables or passages of the source.

Experiments:
liver microsomal enzymes = experiment: metabolism by human liver microsomal enzymes; assay type: in vitro ADME
[1] = in-vitro plasma protein binding, humans; assay type: in vitro ADME; conditions: human, 0.05 to 50 μg/mL
Protocol: The in-vitro plasma protein binding of the drug of Formula I was independent of concentration over the concentration range of 0.05 to 50 μg/mL and was 87.2-89.1% in mice; 87.6-89.2% in rats; 88.3-92.0% in rabbits; […] in dogs; 97.0-97.6% in monkeys; and 96.3-96.6% in humans.

[2] = Example 1 single dose study: pharmacokinetics; assay type: in vivo, human; conditions: for Cmax / half-life / AUC(0-inf) / AUC(0-t) / AUC / Tmax: both sexes, human; for Tmax: read-out: mean time to maximum plasma concentration (Tmax)
Protocol: A single-center, randomized, double-blind, dose-rising study to determine the safety, pharmacokinetics, and pharmacodynamics of single doses of 1-(3-chloro-5-{[4-(4-chlorothiophen-2-yl)-5-(4-cyclohexylpiperazin-1-yl)thiazol-2-yl]carbamoyl} pyridin-2-yl)piperadine-4-carboxylic acid (Formula I) in normal healthy volunteers was performed. The starting dose of the drug of Formula I was 1 mg (expressed as free base). Successive dose cohorts received 3, 10, 20, 50, 75 and 100 mg. The drug substance in the form of the monomaleate salt was suspended in Ora-Plus® (purified water, microcrystalline cellulose, sodium carboxymethylcellulose, xanthan gum, citric acid, sodium phosphate, simethicone, potassium sorbate and methylparaben), a commercially available oral suspending vehicle manufactured by Paddock Laboratories, Inc. Minneapolis, Minn. The Ora-Plus® was diluted with purified water, USP in a 1:1 suspension before being used to suspend the drug substance powder in preparation for oral administration. Prior to administration, 30 mL of the Ora-Plus®/water vehicle was added to each bottle, shaken and then consumed by the subject for each of the 3, 10, 50 and 75 mg dose cohorts. This was followed by an additional 30 mL of vehicle that was added to the bottle as a wash solution, shaken and then consumed by the subject. For the 20 mg and 100 mg dose cohorts, 60 mL of the Ora-Plus®/water vehicle was added to two (2) separate bottles containing the appropriate dose of drug (30 mL each bottle), shaken then consumed by the subjects. This was followed by an additional 60 mL of vehicle that was added as 30 ml to each bottle as a wash solution, shaken and then consumed by the subject.
A minimum of 9 subjects (male and female healthy volunteers) were enrolled in each cohort. The active group within each cohort included male and female volunteers. Three subjects per cohort received placebo. Each successive dose cohort was treated no sooner than 10 days after the previous group had received the study drug. […] Each subject received only 1 dose of Formula I. Intra-subject dose escalation and treating previously treated subjects in any cohort expansions were not allowed. All subjects were followed until their platelet count returned to normal levels (defined as ±20% of baseline).
Dose escalation was stopped if the PD limiting dose was reached or at the dose at which a dose limiting toxicity (DLT) was observed. The pharmacodynamic limit (PD limit) is defined as the dose at which there was a 50% increase in platelet count relative to the […] in the 6 actively treated subjects. The pharmacodynamic limiting dose (if reached), was repeated by running an additional cohort of 9 subjects (3 placebo and 6 active) at the dose level of the observed PD limit.
Pharmacokinetic sampling was taken. Pharmacodynamic evaluations of platelet counts and other hematological parameters were performed from study drug administration (Day 1) until 7 days after dosing. Outpatient follow-up for safety evaluation occurred until 14 days post-treatment for all subjects and longer for subjects requiring additional follow-up. For the repeat PD dose cohort or 100 mg dose cohort, the evaluations of platelet counts and other hematological parameters were performed each day from Day 1 through 14 and then every other day up to Day 28. If the PD dose limit was not reached at a dose of 75 mg, platelet count evaluations as outlined for the PD limiting dose were performed on the 100 mg dose cohort.

metabolism by liver microsomal enzymes (liver microsomal enzymes): does not appear to be metabolized
fraction unbound [1]: 0.034 to 0.037
Cmax ([2]; plasma, oral, 1 mg, single 1 mg daily dose, read-out: mean maximum plasma concentration (Cmax)): ~0.0057 µg/mL
Cmax ([2]; plasma, oral, 3 mg, single 3 mg daily dose, read-out: mean maximum plasma concentration (Cmax)): 0.014 to 0.017 µg/mL
Cmax ([2]; plasma, oral, 10 mg, single 10 mg daily dose, (±20%), read-out: mean maximum plasma concentration (Cmax)): 0.053 to 0.069 µg/mL
Cmax ([2]; plasma, oral, 20 mg, single 20 mg daily dose, read-out: mean maximum plasma concentration (Cmax)): 0.121 to 0.168 µg/mL
Cmax ([2]; plasma, oral, 50 mg, single 50 mg daily dose, read-out: mean maximum plasma concentration (Cmax)): ~0.311 µg/mL
Cmax ([2]; plasma, oral, 75 mg, single 75 mg daily dose, read-out: mean maximum plasma concentration (Cmax)): ~0.473 µg/mL
Cmax ([2]; plasma, oral, 100 mg, 100 mg daily dose, read-out: mean maximum plasma concentration (Cmax)): ~0.388 µg/mL
Cmax ([2]; plasma, po, 1 mg, single oral dose 1 mg, healthy volunteers, final mean, read-out: Cmax): 0.00567 µg/mL
half-life ([2]; plasma, po, 1 mg, single oral dose 1 mg, healthy volunteers, final mean, read-out: T½ (converted)): 21.5 h
Cmax ([2]; plasma, po, 1 mg, single oral dose 1 mg, healthy volunteers, preliminary mean, read-out: Cmax): 0.00515 µg/mL
half-life ([2]; plasma, po, 1 mg, single oral dose 1 mg, healthy volunteers, preliminary mean, read-out: T½ (converted)): 18.9 h
Cmax ([2]; plasma, po, 3 mg, single oral dose 3 mg, healthy volunteers, preliminary mean, read-out: Cmax): 0.016 µg/mL
half-life ([2]; plasma, po, 3 mg, single oral dose 3 mg, healthy volunteers, preliminary mean, read-out: T½ (converted)): 17.5 h
Cmax ([2]; plasma, po, 10 mg, single oral dose 10 mg, healthy volunteers, preliminary mean, read-out: Cmax): 0.0636 µg/mL
half-life ([2]; plasma, po, 10 mg, single oral dose 10 mg, healthy volunteers, preliminary mean, read-out: T½ (converted)): 18 h
Cmax ([2]; plasma, po, 20 mg, single oral dose 20 mg, healthy volunteers, preliminary mean, read-out: Cmax): 0.146 µg/mL
half-life ([2]; plasma, po, 20 mg, single oral dose 20 mg, healthy volunteers, preliminary mean, read-out: T½ (converted)): 12.9 h
Cmax ([2]; plasma, po, 50 mg, single oral dose 50 mg, healthy volunteers, final mean, read-out: Cmax): 0.311 µg/mL
half-life ([2]; plasma, po, 50 mg, single oral dose 50 mg, healthy volunteers, final mean, read-out: T½ (converted)): 19 h
Cmax ([2]; plasma, po, 50 mg, single oral dose 50 mg, healthy volunteers, preliminary mean, read-out: Cmax): 0.294 µg/mL
half-life ([2]; plasma, po, 50 mg, single oral dose 50 mg, healthy volunteers, preliminary mean, read-out: T½ (converted)): 14.8 h
Cmax ([2]; plasma, po, 75 mg, single oral dose 75 mg, healthy volunteers, final mean, read-out: Cmax): 0.474 µg/mL
half-life ([2]; plasma, po, 75 mg, single oral dose 75 mg, healthy volunteers, final mean, read-out: T½ (converted)): 18.8 h
Cmax ([2]; plasma, po, 75 mg, single oral dose 75 mg, healthy volunteers, preliminary mean, read-out: Cmax): 0.446 µg/mL
half-life ([2]; plasma, po, 75 mg, single oral dose 75 mg, healthy volunteers, preliminary mean, read-out: T½ (converted)): 15.3 h
Cmax ([2]; plasma, po, 100 mg, single oral dose 100 mg, healthy volunteers, final mean, read-out: Cmax): 0.388 µg/mL
half-life ([2]; plasma, po, 100 mg, single oral dose 100 mg, healthy volunteers, final mean, read-out: T½ (converted)): 18 h
Cmax ([2]; plasma, po, 100 mg, single oral dose 100 mg, healthy volunteers, preliminary mean, read-out: Cmax): 0.365 µg/mL
half-life ([2]; plasma, po, 100 mg, single oral dose 100 mg, healthy volunteers, preliminary mean, read-out: T½ (converted)): 15.8 h
AUC(0-inf) ([2]; plasma, single oral dose 1 mg, healthy volunteers, final mean): 0.183 µg·h/mL
AUC(0-t) ([2]; plasma, single oral dose 1 mg, healthy volunteers, final mean, read-out: AUC0-last): 0.13 µg·h/mL
AUC ([2]; plasma, single oral dose 1 mg, healthy volunteers, preliminary mean): 0.161 µg·h/mL
AUC ([2]; plasma, single oral dose 3 mg, healthy volunteers, preliminary mean): 0.477 µg·h/mL
AUC ([2]; plasma, single oral dose 10 mg, healthy volunteers, preliminary mean): 2.11 µg·h/mL
AUC ([2]; plasma, single oral dose 20 mg, healthy volunteers, preliminary mean): 4.02 µg·h/mL
AUC(0-inf) ([2]; plasma, single oral dose 50 mg, healthy volunteers, final mean): 8.48 µg·h/mL
AUC(0-t) ([2]; plasma, single oral dose 50 mg, healthy volunteers, final mean, read-out: AUC0-last): 6.88 µg·h/mL
AUC ([2]; plasma, single oral dose 50 mg, healthy volunteers, preliminary mean): 9.19 µg·h/mL
AUC(0-inf) ([2]; plasma, single oral dose 75 mg, healthy volunteers, final mean): 13.5 µg·h/mL
AUC(0-t) ([2]; plasma, single oral dose 75 mg, healthy volunteers, final mean, read-out: AUC0-last): 10.8 µg·h/mL
AUC ([2]; plasma, single oral dose 75 mg, healthy volunteers, preliminary mean): 12.6 µg·h/mL
AUC(0-inf) ([2]; plasma, single oral dose 100 mg, healthy volunteers, final mean): 11.1 µg·h/mL
AUC(0-t) ([2]; plasma, single oral dose 100 mg, healthy volunteers, final mean, read-out: AUC0-last): 10.9 µg·h/mL
AUC ([2]; plasma, single oral dose 100 mg, healthy volunteers, preliminary mean): 10.5 µg·h/mL
half-life ([2]; serum, oral, single dose 1 mg to 100 mg, independent of the dose, read-out: serum elimination half-life (mean t1/2)): 18 to 24 h
Cmax ([2]; serum, po, 3 mg, single oral dose 3 mg, healthy volunteers, final mean, read-out: Cmax): 0.0171 µg/mL
half-life ([2]; serum, po, 3 mg, single oral dose 3 mg, healthy volunteers, final mean, read-out: T½ (converted)): 23.6 h
Cmax ([2]; serum, po, 10 mg, single oral dose 10 mg, healthy volunteers, final mean, read-out: Cmax): 0.0691 µg/mL
half-life ([2]; serum, po, 10 mg, single oral dose 10 mg, healthy volunteers, final mean, read-out: T½ (converted)): 21.8 h
Cmax ([2]; serum, po, 20 mg, single oral dose 20 mg, healthy volunteers, final mean, read-out: Cmax): 0.169 µg/mL
half-life ([2]; serum, po, 20 mg, single oral dose 20 mg, healthy volunteers, final mean, read-out: T½ (converted)): 18.9 h
AUC(0-inf) ([2]; serum, single oral dose 3 mg, healthy volunteers, final mean): 0.534 µg·h/mL
AUC(0-t) ([2]; serum, single oral dose 3 mg, healthy volunteers, final mean, read-out: AUC0-last): 0.401 µg·h/mL
AUC(0-inf) ([2]; serum, single oral dose 10 mg, healthy volunteers, final mean): 2.38 µg·h/mL
AUC(0-t) ([2]; serum, single oral dose 10 mg, healthy volunteers, final mean, read-out: AUC0-last): 1.65 µg·h/mL
AUC(0-inf) ([2]; serum, single oral dose 20 mg, healthy volunteers, final mean): 4.44 µg·h/mL
AUC(0-t) ([2]; serum, single oral dose 20 mg, healthy volunteers, final mean, read-out: AUC0-last): 3.6 µg·h/mL
AUC(0-t) ([2]; plasma, oral, 100 mg daily dose, read-out: mean AUC0-last): ~10.9 µg·h/mL
Tmax ([2]; plasma, oral, 100 mg daily dose): ~6.2 h
AUC(0-t) ([2]; plasma, oral, single 1 mg daily dose, read-out: mean AUC0-last): ~0.13 µg·h/mL
Tmax ([2]; plasma, oral, single 1 mg daily dose): ~6.1 h
AUC(0-t) ([2]; plasma, oral, single 3 mg daily dose, read-out: mean AUC0-last): 0.235 to 0.4 µg·h/mL
Tmax ([2]; plasma, oral, single 3 mg daily dose): ~5.5 h
AUC(0-t) ([2]; plasma, oral, single 10 mg daily dose, read-out: mean AUC0-last): 0.84 to 1.65 µg·h/mL
Tmax ([2]; plasma, oral, single 10 mg daily dose): 4.8 to 6 h
AUC(0-t) ([2]; plasma, oral, single 20 mg daily dose, read-out: mean AUC0-last): 1.96 to 3.6 µg·h/mL
Tmax ([2]; plasma, oral, single 20 mg daily dose): ~5.2 h
AUC(0-t) ([2]; plasma, oral, single 50 mg daily dose, read-out: mean AUC0-last): ~6.88 µg·h/mL
Tmax ([2]; plasma, oral, single 50 mg daily dose): ~4.8 h
AUC(0-t) ([2]; plasma, oral, single 75 mg daily dose, read-out: mean AUC0-last): ~10.8 µg·h/mL
Tmax ([2]; plasma, oral, single 75 mg daily dose): ~6 h
lag time ([2]; single oral dose, healthy volunteers): 2 to 4 h
SMILES: O=C(Nc1nc(-c2cc(Cl)cs2)c(N2CCN(C3CCCCC3)CC2)s1)c1cnc(N2CCC(C(=O)O)CC2)c(Cl)c1 [Formula I, 1-(3-chloro-5-{[4-(4-chlorothiophen-2-yl)-5-(4-cyclohexylpiperazin-1-yl)thiazol-2-yl]carbamoyl}pyridin-2-yl)piperadine-4-carboxylic acid]
dose proportionality of Cmax and AUC ([2]; single doses 1 to 100 mg, slightly lower than expected exposure at 100 mg): increased proportionally up to the 75 mg dose
